pIC50: −log10 of the molar value. Read-outs that look alike come from different tables or passages of the source.
Experiments:
[1] = tested on: human lung cancer strain NCI-H441; assay type: cell-based
Method in brief: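 Proliferation was scored by […] measured after the reagent was added to cultures kept at 37°C in 5% carbon dioxide.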

HRAS wild-type protein = HRAS wild-type protein (Homo sapiens, UniProt P01112); test: Binding to HRAS by surface plasmon resonance (SPR), KD and KD ratio to KRAS; conditions: ratio of KD for HRAS wild-type protein to KD for KRAS
Chain of HRAS wild-type protein (P01112 whole entry): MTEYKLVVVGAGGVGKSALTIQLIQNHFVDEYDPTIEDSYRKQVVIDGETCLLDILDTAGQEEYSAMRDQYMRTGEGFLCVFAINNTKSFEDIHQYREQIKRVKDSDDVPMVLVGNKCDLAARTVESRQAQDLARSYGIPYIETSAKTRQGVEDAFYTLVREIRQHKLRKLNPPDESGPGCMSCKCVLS
Method in brief: (§1)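 Compound binding is evaluated by SPR single-cycle kinetics, with concentrations added intermittently from low to high for 75 s each. Target surfaces carry GDP-loaded biotinylated Avi-RAS at about 100–300 RU, regenerated after each cycle; temperature 30°C. A 1:1 binding model gives KD.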

[2] = target: GDP-bound NRAS wild-type protein (Homo sapiens, UniProt P01111); test: Binding to NRAS by surface plasmon resonance (SPR), KD and KD ratio to KRAS; conditions: ratio of KD for GDP-bound NRAS wild-type protein to KD for KRAS
Chain of GDP-bound NRAS wild-type protein (P01111 whole entry): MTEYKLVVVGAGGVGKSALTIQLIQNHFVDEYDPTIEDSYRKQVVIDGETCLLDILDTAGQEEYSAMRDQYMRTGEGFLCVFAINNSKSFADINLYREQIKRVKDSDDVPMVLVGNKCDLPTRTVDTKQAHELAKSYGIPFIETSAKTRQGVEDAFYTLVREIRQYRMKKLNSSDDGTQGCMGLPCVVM
Method in brief: as §1

[3] = NCI-H441 cells, 4 days, CellTiter-Glo, read-out: NCl-H441 IC50

SMILES	pIC50 [1, 3]	HRAS /KRAS (HRAS wild-type protein)	NRAS /KRAS [2]	pIC50 [1]
CCC[C@H]1C(=O)N[C@@H]([C@@H](C)CC)C(=O)N(C)CC(=O)N(C)[C@H]2C/C=C\CCN(C2=O)[C@@H](Cc2ccc(C(F)(F)F)cc2)C(=O)N(C)CC(=O)N[C@@H](CCc2cc(C)c(C(F)F)c(C)c2)C(=O)N2C[C@H](OCC)C[C@H]2C(=O)NC2(CC(C)(C)C2)C(=O)N(C)[C@@H](C2CCCC2)C(=O)N(C)[C@H](C(=O)N(C)C)CC(=O)N1C [PP2857]	7.21	A (a compound having 10 or more and less than 20 is denoted as A)	A (a compound having 10 or more and less than 20 is denoted as A)	
CCC[C@H]1C(=O)N[C@@H]([C@@H](C)CC)C(=O)N(C)CC(=O)N(C)[C@H]2C/C=C\CCN(C2=O)[C@@H](Cc2ccc(C(F)(F)F)cc2)C(=O)N(C)CC(=O)N[C@@H](CCc2ccc(C3CC3)c(Cl)c2)C(=O)N2C[C@H](OCC)C[C@H]2C(=O)NC2(CC(C)(C)C2)C(=O)N(C)[C@@H](C2CCCC2)C(=O)N(C)[C@H](C(=O)N(C)C)CC(=O)N1C [PP2858]	7.93	B (a compound having 3 or more and less than 10 is denoted as B)	A (a compound having 10 or more and less than 20 is denoted as A)	
CCC[C@H]1C(=O)N[C@@H]([C@@H](C)CC)C(=O)N(C)CC(=O)N(C)[C@H]2C/C=C\CCN(C2=O)[C@@H](Cc2ccc(C(F)(F)F)cc2)C(=O)N(C)CC(=O)N[C@@H](CCc2cc(Cl)c(C(F)(F)F)c(Cl)c2)C(=O)N2C[C@H](OCC)C[C@H]2C(=O)NC2(CC(C)(C)C2)C(=O)N(C)[C@@H](C2CCCC2)C(=O)N(C)[C@H](C(=O)N(C)C)CC(=O)N1C [PP2859]		A (a compound having 10 or more and less than 20 is denoted as A)	A (a compound having 10 or more and less than 20 is denoted as A)	8.17
CCC[C@H]1C(=O)N[C@@H]([C@@H](C)CC)C(=O)N(C)CC(=O)N(C)[C@H]2C/C=C\CCN(C2=O)[C@@H](Cc2ccc(C(F)(F)F)cc2)C(=O)N(C)CC(=O)N[C@@H](CCc2ccc(C(F)(F)F)c(CC)c2)C(=O)N2C[C@H](OCC)C[C@H]2C(=O)NC2(CC(C)(C)C2)C(=O)N(C)[C@@H](C2CCCC2)C(=O)N(C)[C@H](C(=O)N(C)C)CC(=O)N1C [PP2861]		B (a compound having 3 or more and less than 10 is denoted as B)	A (a compound having 10 or more and less than 20 is denoted as A)	8.20
CCC[C@H]1C(=O)N[C@@H]([C@@H](C)CC)C(=O)N(C)CC(=O)N(C)[C@H]2C/C=C\CCN(C2=O)[C@@H](Cc2ccc(C(F)(F)F)cc2)C(=O)N(C)CC(=O)N[C@@H](CCc2cc(F)c(CC)c(OC)c2)C(=O)N2C[C@H](OCC)C[C@H]2C(=O)NC2(CC(C)(C)C2)C(=O)N(C)[C@@H](C2CCCC2)C(=O)N(C)[C@H](C(=O)N(C)C)CC(=O)N1C [PP2862]	7.44	B (a compound having 3 or more and less than 10 is denoted as B)	A (a compound having 10 or more and less than 20 is denoted as A)	
CCC[C@H]1C(=O)N[C@@H]([C@@H](C)CC)C(=O)N(C)CC(=O)N(C)[C@H]2C/C=C\CCN(C2=O)[C@@H](Cc2ccc(C(F)(F)F)cc2)C(=O)N(C)CC(=O)N[C@@H](CCc2cc(C)c(C3CC3)c(C)c2)C(=O)N2C[C@H](OCC)C[C@H]2C(=O)NC2(CC(C)(C)C2)C(=O)N(C)[C@@H](C2CCCC2)C(=O)N(C)[C@H](C(=O)N(C)C)CC(=O)N1C [PP2863]	6.89	A (a compound having 10 or more and less than 20 is denoted as A)	A (a compound having 10 or more and less than 20 is denoted as A)	
CCC[C@H]1C(=O)N[C@@H]([C@@H](C)CC)C(=O)N(C)CC(=O)N(C)[C@H]2C/C=C\CCN(C2=O)[C@@H](Cc2ccc(C(F)(F)F)cc2)C(=O)N(C)CC(=O)N[C@@H](CCc2cc(F)c(Cl)c(OC)c2)C(=O)N2C[C@H](OCC)C[C@H]2C(=O)NC2(CC(C)(C)C2)C(=O)N(C)[C@@H](C2CCCC2)C(=O)N(C)[C@H](C(=O)N(C)C)CC(=O)N1C [PP2864]	6.91	A (a compound having 10 or more and less than 20 is denoted as A)	A (a compound having 10 or more and less than 20 is denoted as A)	
CCC[C@H]1C(=O)N[C@@H]([C@@H](C)CC)C(=O)N(C)CC(=O)N(C)[C@H]2C/C=C\CCN(C2=O)[C@@H](Cc2ccc(C(F)(F)F)cc2)C(=O)N(C)CC(=O)N[C@@H](CCc2cc(Cl)c(C(F)F)c(Cl)c2)C(=O)N2C[C@H](OCC)C[C@H]2C(=O)NC2(CC(C)(C)C2)C(=O)N(C)[C@@H](C2CCCC2)C(=O)N(C)[C@H](C(=O)N(C)C)CC(=O)N1C [PP2865]	7.42	A (a compound having 10 or more and less than 20 is denoted as A)	A (a compound having 10 or more and less than 20 is denoted as A)	
CCC[C@H]1C(=O)N[C@@H]([C@@H](C)CC)C(=O)N(C)CC(=O)N(C)[C@H]2C/C=C\CCN(C2=O)[C@@H](Cc2ccc(C(F)(F)F)cc2)C(=O)N(C)CC(=O)N[C@@H](CCc2cc(C)c(C(F)F)c(Cl)c2)C(=O)N2C[C@H](OCC)C[C@H]2C(=O)NC2(CC(C)(C)C2)C(=O)N(C)[C@@H](C2CCCC2)C(=O)N(C)[C@H](C(=O)N(C)C)CC(=O)N1C [PP2866]	7.40	A (a compound having 10 or more and less than 20 is denoted as A)	A (a compound having 10 or more and less than 20 is denoted as A)	
CCC[C@H]1C(=O)N[C@@H]([C@@H](C)CC)C(=O)N(C)CC(=O)N(C)[C@H]2C/C=C\CCN(C2=O)[C@@H](Cc2ccc(C(F)(F)F)cc2)C(=O)N(C)CC(=O)N[C@@H](CCc2cc(F)c(C(F)F)c(OC)c2)C(=O)N2C[C@H](OCC)C[C@H]2C(=O)NC2(CC(C)(C)C2)C(=O)N(C)[C@@H](C2CCCC2)C(=O)N(C)[C@H](C(=O)N(C)C)CC(=O)N1C [PP2867]	7.77	A (a compound having 10 or more and less than 20 is denoted as A)	A (a compound having 10 or more and less than 20 is denoted as A)	
CCC[C@H]1C(=O)N[C@@H]([C@@H](C)CC)C(=O)N(C)CC(=O)N(C)[C@H]2C/C=C\CCN(C2=O)[C@@H](Cc2ccc(C(F)(F)F)cc2)C(=O)N(C)CC(=O)N[C@@H](CCc2ccc(CC)c(OC)c2)C(=O)N2C[C@H](OCC)C[C@H]2C(=O)NC2(CC(C)(C)C2)C(=O)N(C)[C@@H](C2CCCC2)C(=O)N(C)[C@H](C(=O)N(C)C)CC(=O)N1C [PP2869]	7.42	A (a compound having 10 or more and less than 20 is denoted as A)	A (a compound having 10 or more and less than 20 is denoted as A)	
CCC[C@H]1C(=O)N[C@@H]([C@@H](C)CC)C(=O)N(C2CC2)CC(=O)N(C)[C@H]2C/C=C\CCN(C2=O)[C@@H](Cc2ccc(C)cc2)C(=O)N(C)CC(=O)N[C@@H](CCc2cc(F)c(Cl)c(OC)c2)C(=O)N2C[C@H](OCC)C[C@H]2C(=O)NC2(CC(C)(C)C2)C(=O)N(C)[C@@H](C2CCCC2)C(=O)N(C)[C@H](C(=O)N(C)C)CC(=O)N1C [PP2871]		A (a compound having 10 or more and less than 20 is denoted as A)	A (a compound having 10 or more and less than 20 is denoted as A)	7.55
CCC[C@H]1C(=O)N[C@@H]([C@@H](C)CC)C(=O)N(C2CC2)CC(=O)N(C)[C@H]2C/C=C\CCN(C2=O)[C@@H](Cc2ccc(C)cc2)C(=O)N(C)CC(=O)N[C@@H](CCc2cc(C)c(C(F)F)c(C)c2)C(=O)N2C[C@H](OCC)C[C@H]2C(=O)NC2(CC(C)(C)C2)C(=O)N(C)[C@@H](C2CCCC2)C(=O)N(C)[C@H](C(=O)N(C)C)CC(=O)N1C [PP2873]		A (a compound having 10 or more and less than 20 is denoted as A)	A (a compound having 10 or more and less than 20 is denoted as A)	6.89
CCC[C@H]1C(=O)N[C@@H]([C@@H](C)CC)C(=O)N(C2CC2)CC(=O)N(C)[C@H]2C/C=C\CCN(C2=O)[C@@H](Cc2ccc(C)cc2)C(=O)N(C)CC(=O)N[C@@H](CCc2cc(C)c(C(F)F)c(F)c2)C(=O)N2C[C@H](OCC)C[C@H]2C(=O)NC2(CC(C)(C)C2)C(=O)N(C)[C@@H](C2CCCC2)C(=O)N(C)[C@H](C(=O)N(C)C)CC(=O)N1C [PP2874]		A (a compound having 10 or more and less than 20 is denoted as A)	A (a compound having 10 or more and less than 20 is denoted as A)	7.36
CCC[C@H]1C(=O)N[C@@H]([C@@H](C)CC)C(=O)N(C2CC2)CC(=O)N(C)[C@H]2C/C=C\CCN(C2=O)[C@@H](Cc2ccc(C)cc2)C(=O)N(C)CC(=O)N[C@@H](CCc2cc(C)c(C(F)F)c(Cl)c2)C(=O)N2C[C@H](OCC)C[C@H]2C(=O)NC2(CC(C)(C)C2)C(=O)N(C)[C@@H](C2CCCC2)C(=O)N(C)[C@H](C(=O)N(C)C)CC(=O)N1C [PP2875]		A (a compound having 10 or more and less than 20 is denoted as A)	A (a compound having 10 or more and less than 20 is denoted as A)	6.92
CCC[C@H]1C(=O)N[C@@H]([C@@H](C)CC)C(=O)N(C2CC2)CC(=O)N(C)[C@H]2C/C=C\CCN(C2=O)[C@@H](Cc2ccc(C)cc2)C(=O)N(C)CC(=O)N[C@@H](CCc2cc(Cl)c(C(F)F)c(Cl)c2)C(=O)N2C[C@H](OCC)C[C@H]2C(=O)NC2(CC(C)(C)C2)C(=O)N(C)[C@@H](C2CCCC2)C(=O)N(C)[C@H](C(=O)N(C)C)CC(=O)N1C [PP2877]		A (a compound having 10 or more and less than 20 is denoted as A)	A (a compound having 10 or more and less than 20 is denoted as A)	7.02

Source: patent publication EP4603105A1, “PHARMACEUTICAL COMPOSITION CONTAINING CYCLIC COMPOUND HAVING SELECTIVE KRAS INHIBITORY EFFECT AGAINST HRAS AND NRAS” (CHUGAI SEIYAKU KABUSHIKI KAISHA, priority 2022, dated 2024)
